Entries after “also recorded” stand apart in the source; their conditions may differ.
Legend:
[1] = tested on: rats with experimental colonic hypersensitivity (butyrate), referred lumbar hypersensitivity; test: colonic hypersensitivity model (intracolonic sodium butyrate): referred lumbar hypersensitivity, von Frey mechanical threshold; format: in vivo, Sprague Dawley rats; settings: butyrate rats; for effect of concurrent RVM antagonist on the effect of RVM sumatriptan: sumatriptan 10 μg RVM; for effect of concurrent systemic (IP) antagonist on the effect of systemic sumatriptan: isamoltane 4 mg/kg IP or BRL15722 0.3 mg/kg IP
Description: (§1) Adult male Sprague Dawley rats (Harlan, Indianapolis, Ind.), weighing 150-200 g, were maintained in a climate-controlled room with ad lib food and water on a 12 hour/12 hour light/dark cycle (lights on at 07:00 hours). All procedures followed the policies of the International Association for the Study of Pain and the NIH guidelines for the handling and use of laboratory animals. Studies were approved by the University of Arizona IACUC.
(§2) Dibutyltin dichloride (DBTC) was obtained from Sigma-Aldrich (Milwaukee, Wis.) and dissolved in 100% ethanol to a concentration of 8 mg/kg (Sparmann et al., Gastroenterology. 112:1664-1672 (1997))). Sumatriptan succinate was obtained from Toronto Research Chemicals (ON, Canada) and dissolved in saline to 1, 3, and 10 μg for RVM microinjections and 100, 200, and 300 μg/kg for systemic injections (Kayser et al., Br J Pharmacol. 137:1287-1297 (2002)). The 5HT1B antagonist isamoltane and the 5HT1D antagonist BRL15722 were obtained from Tocris (Elllisville, Mo.). Isamoltane was dissolved in saline to a concentration of 3 μg for RVM microinjection and to a concentration of 4 mg/kg (Ottani et al., Eur J Pharmacol. 497:181-186 (2004)) for system application. BRL15722 was dissolved in 10% DMSO to a concentration of 3 μg for RVM microinjection and to a concentration of 0.3 mg/kg (Ottani et al., Eur J Pharmacol. 497:181-186 (2004)) for systemic application.
(§3) For the experiments involving microinjection of drugs into the RVM, rats underwent surgeries to implant RVM cannulae. After five days of recovery, rats received either intravenous injection of DBTC to induce pancreatitis, or intracolonic injection of sodium butyrate to induce colonic hypersensitivity. Animals were monitored for development of visceral hypersensitivity on the subsequent days. On day six after either induction of pancreatitis or colonic hypersensitivity, animals underwent baseline behavioral measurements. Sumatriptan was microinjected into the RVM at different doses (separate groups of rats for each dose) and animals were monitored behaviorally for two h after sumatriptan application in the RVM. For experiments investigating the effects of serotonin antagonists, the drugs were microinjected concurrently with injection of sumatriptan and animals were monitored for the subsequent two h. Separate groups of animals were microinjected with the antagonists alone to control for possible effects of the drugs by themselves.
(§4) For the experiments involving systemic drug administration, rats received intravenous injection of DBTC to induce pancreatitis or intracolonic injection of sodium butyrate to induce colonic hypersensitivity. On day six after either induction of pancreatitis of colonic hypersensitivity, animals underwent baseline behavioral measurements. Sumatriptan was injected intraperitoneally at different doses (separate groups of rats for each dose) and the animals were monitored behaviorally every 20 min for two h after injection. For experiments investigating the effects of serotonin antagonists, the drugs were injected intraperitoneally immediately following the injection of sumatriptan (separate groups for each respective antagonist). Separate groups of animals were injected with the antagonists alone. Additionally, separate groups of animals were injected with sumatriptan systemically and microinjected with the antagonists in the RVM to determine if the RVM is a site of action for systemically applied sumatriptan. The microinjection of antagonists into the RVM was done immediately following the systemic injection of sumatriptan. All animals were tested for behavioral signs of hypersensitivity every 20 min for two h after the end of the injections.
Colonic hypersensitivity was induced by enemas of a sodium butyrate solution ([…]) twice daily for 3 days (Bourdu et al., Gastroenterology. 128:1996-2008 (2005)). […]

[2] = tested on: rats with experimental pancreatitis (DBTC), referred abdominal hypersensitivity; test: experimental pancreatitis model (IV DBTC): referred abdominal hypersensitivity, withdrawals to von Frey filament; format: in vivo, Sprague Dawley rats; settings: DBTC rats; for effect of concurrent RVM antagonist on the effect of RVM sumatriptan: sumatriptan 10 μg RVM; for effect of concurrent RVM antagonist on the effect of RVM sumatriptan / effect of RVM antagonist on the effect of systemic sumatriptan: antagonist 3 μg RVM
Description: as §1, §2
as §3, with “Sumatriptan was microinjected into the RVM at different doses (separate groups of rats for each dose) and animals were monitored behaviorally for two h after sumatriptan application in the RVM.” left out
as §4, with “Sumatriptan was injected intraperitoneally at different doses (separate groups of rats for each dose) and the animals were monitored behaviorally every 20 min for two h after injection. For experiments investigating the effects of serotonin antagonists, the drugs were injected intraperitoneally immediately following the injection of sumatriptan (separate groups for each respective antagonist).” left out
Pancreatitis was produced by a tail vein injection of dibutyltin dichloride (DBTC, Aldrich, Milwaukee, Wis., 0.25 cc) dissolved in 100% ethanol at a dose of 8 mg/kg under isofluorane anesthesia (2-3 liters/min, 4.0%/vol until anesthetized, then 2.5%/vol throughout the procedure; Vera-Portocarrero et al., Gastroenterology. 130:2155-2164 (2006)). Control animals were injected with the vehicle solution only (100% ethanol, 0.25 mL).
Referred abdominal hypersensitivity in the pancreatitis model was quantified by measuring the number of withdrawal events evoked by application of a calibrated von Frey filament (determined by either abdominal withdrawal, licking of the abdominal area, or whole body withdrawal). Rats were placed inside Plexiglas boxes on an elevated fine fiberglass screen mesh and acclimated for 30 minutes before testing. […]

[3] = tested on: referred visceral hypersensitivity induced by pancreatic inflammation; settings: microinjection into the RVM (Vera-Portocarrero et al. 2006); cited from earlier work
[4] = tested on: spinal neurons, colorectal distention (CRD); settings: microinjection into the RVM (Zhuo et al.); cited from earlier work
[5] = sumatriptan 300 μg/kg IP, listed as BRL1 5722

SMILES	effect of concurrent RVM antagonist on the effect of RVM sumatriptan ([1]; antagonist 3 μg RVM)	effect of concurrent RVM antagonist on the effect of RVM sumatriptan ([1]; antagonist 3 μg RVM, listed as BRL1 5722)	effect of RVM antagonist on the effect of systemic sumatriptan ([1]; sumatriptan 300 μg/kg IP, antagonist 3 μg RVM)	effect of concurrent systemic (IP) antagonist on the effect of systemic sumatriptan ([1]; sumatriptan 300 μg/kg IP)	effect of concurrent systemic (IP) antagonist on the effect of systemic sumatriptan [1, 5]	effect of concurrent RVM antagonist on the effect of RVM sumatriptan [2]	effect of concurrent RVM antagonist on the effect of RVM sumatriptan ([2]; listed as BRL1 5722)	effect of RVM antagonist on the effect of systemic sumatriptan ([2]; sumatriptan 300 μg/kg IP)	effect of RVM antagonist on the effect of systemic sumatriptan [2, 5]	effect of concurrent systemic (IP) antagonist on the effect of systemic sumatriptan ([2]; sumatriptan 300 μg/kg IP, isamoltane 4 mg/kg IP or BRL15722 0.3 mg/kg IP)	referred visceral hypersensitivity induced by pancreatic inflammation [3]	spontaneous activity and responses of spinal neurons to colorectal distention [4]
OC(CN1CCN(c2cccc(Cl)c2)CC1)C(c1ccccc1)c1ccccc1 (stereo not drawn) [BRL15722]	did not block the effect of RVM sumatriptan	did not have any effect	failed to antagonize the effects of systemic sumatriptan; also recorded: did not block the effect of systemic sumatriptan	blocked the effect of systemic sumatriptan	reduced the effects of systemic sumatriptan	did not block the effect of RVM sumatriptan	did not have any effect	did not block the effect of sumatriptan	failed to antagonize the effects of systemic sumatriptan	reduced the effects of systemic sumatriptan; also recorded: blocked the effect of sumatriptan		
CCN(CC)CC(=O)Nc1c(C)cccc1C [lidocaine]											attenuated referred visceral hypersensitivity	reduced spontaneous activity and responses of spinal neurons to colorectal distention; also recorded: reduced spontaneous activity and responses of spinal neurons to CRD
